Assay results published in ChEMBL document CHEMBL1201862, “PubChem BioAssay data set” (2004).
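Cultured in 96-well plates, cells were exposed to test compound for 48 hours across five concentrations. GI50 = concentration required for 50% inhibition of growth.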 Calls of active or inactive are those of the source. Cut-off read from the data, not from the text of the source: active = GI50 up to about 1.1 µM and inactive = higher. Non-standard residues stand in square brackets, D forms with d. Residues, ends and D or L forms follow the SMILES beside them. *: point of attachment. Ac5c = NC1(C(=O)O)CCCC1; Cbz = O=C(OCc1ccccc1)*; Boc = CC(C)(C)OC(=O)*; tBu = CC(C)(C)*

Columns and labels:
Experiment in all cases: NCI anticancer screen, dose series, 48 h
A498 = system: A498
ACHN = system: ACHN
HCT-116 = system: HCT-116
HCT-15 = system: HCT-15
HOP-62 = system: HOP-62
HT-29 = system: HT-29
IGROV-1 = system: IGROV-1
LOX IMVI = system: LOX IMVI
M14 = system: M14
MDA-MB-435 = system: MDA-MB-435
NCI-H522 = system: NCI-H522
NCI/ADR-RES = system: NCI/ADR-RES
OVCAR-3 = system: OVCAR-3
OVCAR-5 = system: OVCAR-5
OVCAR-8 = system: OVCAR-8
SF-268 = system: SF-268
SK-MEL-28 = system: SK-MEL-28
SK-MEL-2 = system: SK-MEL-2
SN12C = system: SN12C
SNB-19 = system: SNB-19

Row | Compound | GI50 (A498) | GI50 (ACHN) | GI50 (HCT-116) | GI50 (HCT-15) | GI50 (HOP-62) | GI50 (HT-29) | GI50 (IGROV-1) | GI50 (LOX IMVI) | GI50 (M14) | GI50 (MDA-MB-435) | GI50 (NCI-H522) | GI50 (NCI/ADR-RES) | GI50 (OVCAR-3) | GI50 (OVCAR-5) | GI50 (OVCAR-8) | GI50 (SF-268) | GI50 (SK-MEL-28) | GI50 (SK-MEL-2) | GI50 (SN12C) | GI50 (SNB-19)
1 | COc1cc2c(cc1OCCCC(=O)Nc1cc(C(=O)Nc3cc(C(=O)Nc4cc(C(=O)NCCCN(C)C)n(C)n4)n(C)c3)n(C)c1)N=CC1CCCN1C2=O (stereo not given) | 29.2 µM (inactive) | 17.1 µM (inactive) | 51.4 µM (inactive) | 28.5 µM | 25.8 µM (inactive) | 20.3 µM (inactive) | 6.38 µM (inactive) | 18.7 µM (inactive) | 24.3 µM (inactive) | 21 µM (inactive) | 2.28 µM (inactive) | 39.8 µM (inactive) | 40.3 µM (inactive) | 40 µM (inactive) | 33 µM (inactive) | 27.9 µM (inactive) | 17.1 µM (inactive) | 23.1 µM (inactive) | 22.5 µM (inactive) | 22.5 µM (inactive)
2 | COC(=O)C1(NC(=O)C(Cc2ccccc2)NC(=O)C(NC(=O)C(CCCCNC(=O)OC(C)(C)C)NC(=O)C(Cc2c[nH]c3ccccc23)NC(=O)C(Cc2ccccc2)NC(=O)OCc2ccccc2)C(C)OC(C)(C)C)CCCC1 (stereo not given) (Cbz-FWK(Boc)T(tBu)F[Ac5c]-OMe; configuration not given here) | > 10 µM (inactive) | > 100 µM (inactive) | > 100 µM (inactive) | > 100 µM | 65 µM (inactive) | > 100 µM (inactive) | 88.1 µM (inactive) | 80.9 µM (inactive) | 18.9 µM (inactive) | > 100 µM (inactive) | 19 µM (inactive) | > 100 µM (inactive) | > 100 µM (inactive) | 64.1 µM (inactive) | > 100 µM (inactive) | > 100 µM (inactive) | > 100 µM (inactive) | 6.61 µM (inactive) | > 100 µM (inactive) | 52.2 µM (inactive)
3 | CC1CC(C)(O)CC(C(O)CC2CC(=O)NC(=O)C2)C1=O (stereo not given) [RESACTIN A] | 0.067 µM (active) | 0.0224 µM (active) | 0.0308 µM (active) | 0.0989 µM | 0.027 µM (active) | 0.037 µM (active) | 0.0292 µM (active) | 0.0283 µM (active) | 0.034 µM (active) | 0.0432 µM (active) | < 0.0135 µM (active) | 0.232 µM (active) | 0.0566 µM (active) | 0.059 µM (active) | 0.0266 µM (active) | 0.0455 µM (active) | 0.0478 µM (active) | 0.0585 µM (active) | 0.0202 µM (active) | 0.0303 µM (active)
